This passage reports EC50 results from patent publication US20220089578A1, “COMPOUNDS AS GLP-1R AGONISTS” (Terns Pharmaceuticals, Inc., priority 2020, published 2022).

Broadly, the EC50 is the concentration giving half of the maximal effect. A high value points to a need for much substance.

Chain of human GLP-1R (P43220 24-463): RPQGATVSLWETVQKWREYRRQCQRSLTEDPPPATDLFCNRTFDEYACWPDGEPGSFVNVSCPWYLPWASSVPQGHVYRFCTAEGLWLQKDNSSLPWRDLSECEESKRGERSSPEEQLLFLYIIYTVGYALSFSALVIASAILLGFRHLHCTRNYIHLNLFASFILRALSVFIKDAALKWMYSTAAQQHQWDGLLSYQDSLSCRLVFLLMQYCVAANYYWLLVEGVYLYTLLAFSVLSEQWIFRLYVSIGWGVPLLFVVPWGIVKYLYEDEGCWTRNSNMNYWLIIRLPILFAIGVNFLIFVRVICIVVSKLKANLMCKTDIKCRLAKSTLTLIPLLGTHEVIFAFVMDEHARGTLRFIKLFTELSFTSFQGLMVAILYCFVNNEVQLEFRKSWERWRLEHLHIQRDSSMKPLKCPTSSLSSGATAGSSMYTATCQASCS

The experiment addresses human GLP-1R (Homo sapiens, UniProt P43220). The experiment can be described thus: GLP-1R Cell Assay 2: CHO-K1_hGLP-1Rlow_clone10 cells, LANCE Ultra cAMP TR-FRET assay. The class given is cell-based. Set-up: expressed in transfected cells. As to conditions: Table 3, percent activation relative to control GLP-1 peptide agonist. How it is done: Stable cell lines expressing high and low GLP-1R surface expression were generated in CHO-K1 cells transfected (Fugene 6) with a puromycin selectable DNA plasmid encoding human GLP-1R receptor (accession number: NM_002062.5) under control of an EF1A promoter. Transfected cells were seeded into 24-well plates (9,000 cells/well) containing complete medium and incubated in a humidified incubator at 37° C. with 5% carbon dioxide. After overnight incubation, medium was replaced with complete medium supplemented with puromycin (6 μg/mL) and refreshed every 2-3 days to select for stably transfected cells. Individual pools of selected cells were expanded prior to analysis for responsiveness to GLP-1 control peptide using a TR-FRET assay to detect cAMP (LANCE Ultra cAMP Assay, Perkin Elmer). Briefly, cells were collected in Versene solution, plated in 384-well plates (1,000 cells/well) and combined with serially diluted GLP-1R control peptide (10 nL) using an acoustic dispenser (ECHO). Plates were incubated for 30 minutes at 25° C. prior to the addition of EU-cAMP tracer (5 μL) and Ulight-anti-cAMP (5 μL) reagents to each well, followed by 15 minutes incubation at 25° C. TR-FRET signal was detected using an EnVision Multimode Plate Reader (excitation=320 nm; emission=615 and 655 nm). Dose-response curves were used to generate EC50 values as a measure of responsiveness to the GLP-1R control peptide. Selected cell lines were monitored for responsiveness over multiple passages to ensure stability. […] Briefly, GLP-1R expression was analyzed by flow cytometry using a fluorescein-labeled Exendin-4 peptide fluorescent probe (FLEX). Cells were harvested in Versene solution and washed 3-times with PBS+0.5% BSA before incubation with FLEX reagent (10 μM) for 2 hours at room temperature. After incubation, cells were washed 3-times in PBS+0.5% BSA before final resuspension in PBS prior to analysis by flow cytometry to measure FLEX mean fluorescence intensity (MFI) as a measure of GLP-1R expression on the cell surface.
For compound testing in the CHO-K1_hGLP-1Rlow_clonel0 cell lines, cells were seeded in 384-well plates (1,000 cells/well). Test compounds were serially diluted in DMSO (10-point, 3-fold dilution), added to wells using an ECHO dispenser (10 nL/well) and plates were centrifuged for 1 min and agitated for 2 min at room temperature prior to 30-minute incubation at 25° C. After incubation, Eu-cAMP (5 p,L) and Ulight-anti-cAMP (5 μL) reagents were added to each well, followed by centrifugation for 1 minute, agitation for 2 minutes at room temperature, and final incubation of the plates at 25° C. for 15 minutes. Plates were read using an EnVision microplate reader (excitation=320 nm; emission=615 and 655 nm). Dose-response curves were generated from duplicate wells based on percent activation calculated relative to a control GLP-1 peptide agonist that was run in parallel. EC50 values were determined by fitting percent activation as a function of compound concentration using the Hill equation (XLfit).
On to `CC1=NCC(Cn2c(CN3CCC(c4cccc(OCc5ccc(C#N)cc5F)n4)CC3)nc3ccc(C(=O)O)cc32)O1` (single isomer, unassigned) [Compound 176, 2-((4-(6-((4-cyano-2-fluorobenzyl)oxy)pyridin-2-yl)piperidin-1-yl)methyl)-1-((2-methyl-4,5-dihydrooxazol-5-yl)methyl)-1H-benzo[d]imidazole-6-carboxylic acid], for which the concentration giving a half-maximal response (EC50) worked out at 1.59 µM.
Next, `O=C(O)c1ccc2nc(CN3CCC(c4cccc(OCc5coc6c(C(F)(F)F)cccc56)n4)CC3)n(C[C@@H]3CCO3)c2c1` [Compound 175, (S)-1-(oxetan-2-ylmethyl)-2-((4-(6-((7-(trifluoromethyl)benzofuran-3-yl)methoxy)pyridin-2-yl)piperidin-1-yl)methyl)-1H-benzo[d]imidazole-6-carboxylic acid]: 0.0145 µM; `O=C(O)c1ccc2nc(CN3CCC(c4cccc(OCc5cc6cccc(C(F)(F)F)c6o5)n4)CC3)n(C[C@@H]3CCO3)c2c1` [Compound 177, (S)-1-(oxetan-2-ylmethyl)-2-((4-(6-((7-(trifluoromethyl)benzofuran-2-yl)methoxy)pyridin-2-yl)piperidin-1-yl)methyl)-1H-benzo[d]imidazole-6-carboxylic acid]: 0.00673 µM.
With `N#Cc1cccc2c(COc3cccc(C4CCN(Cc5nc6ccc(C(=O)O)cc6n5C[C@@H]5CCO5)CC4)n3)csc12` [Compound 173, (S)-2-((4-(6-((7-cyanobenzo[b]thiophen-3-yl)methoxy)pyridin-2-yl)piperidin-1-yl)methyl)-1-(oxetan-2-ylmethyl)-1H-benzo[d]imidazole-6-carboxylic acid] the figure was 0.0132 µM; with `N#Cc1cccc2c(COc3cccc(C4CCN(Cc5nc6ccc(C(=O)O)cc6n5C[C@@H]5CCO5)CC4)n3)csc12` [Compound 187, (S)-2-((4-(6-((7-cyanobenzo[b]thiophen-3-yl)methoxy)pyridin-2-yl)piperidin-1-yl)methyl)-1-(oxetan-2-ylmethyl)-1H-benzo[d]imidazole-6-carboxylic acid], 0.0132 µM; with `O=C(O)c1ccc2nc(CN3CCC(c4cccc(OCc5nc(C6CC6)cs5)n4)CC3)n(C[C@@H]3CCO3)c2c1` [Compound 181, (S)-2-((4-(6-((4-cyclopropylthiazol-2-yl)methoxy)pyridin-2-yl)piperidin-1-yl)methyl)-1-(oxetan-2-ylmethyl)-1H-benzo[d]imidazole-6-carboxylic acid], 0.0228 µM.
As for `CCn1cncc1Cn1c(CN2CC[C@]3(c4nccc(OCc5ccc(C#N)cc5F)n4)C[C@@H]3C2)nc2ccc(C(=O)O)cc21` [Compound 185-P2, 2-(((1S,6R)-6-(4-((4-cyano-2-fluorobenzyl)oxy)pyrimidin-2-yl)-3-azabicyclo[4.1.0]heptan-3-yl)methyl)-1-((1-ethyl-1H-imidazol-5-yl)methyl)-1H-benzo[d]imidazole-6-carboxylic acid], the response was half-maximal at 0.0181 µM (EC50).
With `O=C(O)c1ccc2nc(CN3CCC(c4cccc(OCc5coc6c(C(F)(F)F)cc(Br)cc56)n4)CC3)n(C[C@@H]3CCO3)c2c1` [Compound 182, (S)-2-((4-(6-((5-bromo-7-(trifluoromethyl)benzofuran-3-yl)methoxy)pyridin-2-yl)piperidin-1-yl)methyl)-1-(oxetan-2-ylmethyl)-1H-benzo[d]imidazole-6-carboxylic acid] the figure was 0.0339 µM.
Next, `CCn1ccnc1Cn1c(CN2CCC(c3cccc(N4CCc5cc(C#N)cc(F)c5C4)n3)CC2)nc2ccc(C(=O)O)cc21` [Compound 171, 2-((4-(6-(6-cyano-8-fluoro-3,4-dihydroisoquinolin-2(1H)-yl)pyridin-2-yl)piperidin-1-yl)methyl)-1-((1-ethyl-1H-imidazol-2-yl)methyl)-1H-benzo[d]imidazole-6-carboxylic acid]: 1.41 µM.
Consider `CCn1cncc1Cn1c(CN2CC[C@@]3(c4nccc(N5CCc6cc(C#N)cc(F)c6C5)n4)C[C@H]3C2)nc2ccc(C(=O)O)cc21` [Compound 186-P1], for which it took 0.646 µM to reach a half-maximal effect (EC50).
Next, `CCn1cncc1Cn1c(CN2CCC(c3cccnc3OCc3ccc(C#N)cc3F)CC2)nc2ccc(C(=O)O)cc21` [Compound 169, 2-((4-(2-((4-cyano-2-fluorobenzyl)oxy)pyridin-3-yl)piperidin-1-yl)methyl)-1-((1-ethyl-1H-imidazol-5-yl)methyl)-1H-benzo[d]imidazole-6-carboxylic acid]: 0.00114 µM; `CCn1cccc1Cn1c(CN2CCC(c3cccc(OCc4nc5c(F)cc(C#N)cc5s4)n3)CC2)nc2ccc(C(=O)O)cc21` [Compound 180, 2-((4-(6-((6-cyano-4-fluorobenzo[d]thiazol-2-yl)methoxy)pyridin-2-yl)piperidin-1-yl)methyl)-1-((1-ethyl-1H-pyrrol-2-yl)methyl)-1H-benzo[d]imidazole-6-carboxylic acid]: 0.215 µM.
On to `O=C(O)c1ccc2nc(CN3CCC(c4cccc(OCc5csc6c(C(F)(F)F)cccc56)n4)CC3)n(C[C@@H]3CCO3)c2c1` [Compound 174, (S)-1-(oxetan-2-ylmethyl)-2-((4-(6-((7-(trifluoromethyl)benzo[b]thiophen-3-yl)methoxy)pyridin-2-yl)piperidin-1-yl)methyl)-1H-benzo[d]imidazole-6-carboxylic acid], for which the EC50 was determined as 0.0634 µM.
With `CCn1cncc1Cn1c(CN2CC[C@@]3(c4nccc(OCc5ccc(C#N)cc5F)n4)C[C@H]3C2)nc2ccc(C(=O)O)cc21` [Compound 185-P1, 2-(((1R,6S)-6-(4-((4-cyano-2-fluorobenzyl)oxy)pyrimidin-2-yl)-3-azabicyclo[4.1.0]heptan-3-yl)methyl)-1-((1-ethyl-1H-imidazol-5-yl)methyl)-1H-benzo[d]imidazole-6-carboxylic acid] the figure was 0.00169 µM.
